Experimental data reported in patent US11434232B2, “ATR inhibitor and application thereof” (WUXI BIOCITY BIOPHARMACEUTICS CO., LTD., priority 2018, dated 2022).
pIC50: −log10 of the molar value.

biological target: human ATR kinase (Homo sapiens (Human), UniProt Q13535); assay: In vitro evaluation of inhibitory activity on human ATR kinase (HTRF, ATR/ATRIP(h), GST-cMyc-p53 substrate); type: biochemical; details: 50 nM GST-cMyc-p53, 30 min room temperature
Protocol: IC50 values were determined to evaluate the inhibitory activity of the tested compounds on human ATR kinase.
ATR/ATRIP(h) was incubated in assay buffer containing 50 nM GST-cMyc-p53 and Mg/ATP (according to concentration required). The reaction was initiated by adding Mg/ATP mixture. After incubating for 30 min at room temperature, a stop solution containing EDTA to was added to terminate the reaction. Finally, detecting buffer containing d^2-labeled anti-GST monoclonal antibody and europium-labeled anti-phospho Ser15 antibody against phosphorylated p^53 were added. Then the plate was read in time-resolved fluorescence mode and homogeneous time resolution was performed.
The fluorescence (HTRF) signal was determined according to the formula HTRF=10000×(Em665 nm/Em620 nm).
IC50 data was analyzed using XLFit version 5.3 (ID Business Solutions). Non-linear regression analysis was used to fit the sigmoidal dose response (variable slope) curve.

human ATR kinase, sequence (Q13535 whole entry): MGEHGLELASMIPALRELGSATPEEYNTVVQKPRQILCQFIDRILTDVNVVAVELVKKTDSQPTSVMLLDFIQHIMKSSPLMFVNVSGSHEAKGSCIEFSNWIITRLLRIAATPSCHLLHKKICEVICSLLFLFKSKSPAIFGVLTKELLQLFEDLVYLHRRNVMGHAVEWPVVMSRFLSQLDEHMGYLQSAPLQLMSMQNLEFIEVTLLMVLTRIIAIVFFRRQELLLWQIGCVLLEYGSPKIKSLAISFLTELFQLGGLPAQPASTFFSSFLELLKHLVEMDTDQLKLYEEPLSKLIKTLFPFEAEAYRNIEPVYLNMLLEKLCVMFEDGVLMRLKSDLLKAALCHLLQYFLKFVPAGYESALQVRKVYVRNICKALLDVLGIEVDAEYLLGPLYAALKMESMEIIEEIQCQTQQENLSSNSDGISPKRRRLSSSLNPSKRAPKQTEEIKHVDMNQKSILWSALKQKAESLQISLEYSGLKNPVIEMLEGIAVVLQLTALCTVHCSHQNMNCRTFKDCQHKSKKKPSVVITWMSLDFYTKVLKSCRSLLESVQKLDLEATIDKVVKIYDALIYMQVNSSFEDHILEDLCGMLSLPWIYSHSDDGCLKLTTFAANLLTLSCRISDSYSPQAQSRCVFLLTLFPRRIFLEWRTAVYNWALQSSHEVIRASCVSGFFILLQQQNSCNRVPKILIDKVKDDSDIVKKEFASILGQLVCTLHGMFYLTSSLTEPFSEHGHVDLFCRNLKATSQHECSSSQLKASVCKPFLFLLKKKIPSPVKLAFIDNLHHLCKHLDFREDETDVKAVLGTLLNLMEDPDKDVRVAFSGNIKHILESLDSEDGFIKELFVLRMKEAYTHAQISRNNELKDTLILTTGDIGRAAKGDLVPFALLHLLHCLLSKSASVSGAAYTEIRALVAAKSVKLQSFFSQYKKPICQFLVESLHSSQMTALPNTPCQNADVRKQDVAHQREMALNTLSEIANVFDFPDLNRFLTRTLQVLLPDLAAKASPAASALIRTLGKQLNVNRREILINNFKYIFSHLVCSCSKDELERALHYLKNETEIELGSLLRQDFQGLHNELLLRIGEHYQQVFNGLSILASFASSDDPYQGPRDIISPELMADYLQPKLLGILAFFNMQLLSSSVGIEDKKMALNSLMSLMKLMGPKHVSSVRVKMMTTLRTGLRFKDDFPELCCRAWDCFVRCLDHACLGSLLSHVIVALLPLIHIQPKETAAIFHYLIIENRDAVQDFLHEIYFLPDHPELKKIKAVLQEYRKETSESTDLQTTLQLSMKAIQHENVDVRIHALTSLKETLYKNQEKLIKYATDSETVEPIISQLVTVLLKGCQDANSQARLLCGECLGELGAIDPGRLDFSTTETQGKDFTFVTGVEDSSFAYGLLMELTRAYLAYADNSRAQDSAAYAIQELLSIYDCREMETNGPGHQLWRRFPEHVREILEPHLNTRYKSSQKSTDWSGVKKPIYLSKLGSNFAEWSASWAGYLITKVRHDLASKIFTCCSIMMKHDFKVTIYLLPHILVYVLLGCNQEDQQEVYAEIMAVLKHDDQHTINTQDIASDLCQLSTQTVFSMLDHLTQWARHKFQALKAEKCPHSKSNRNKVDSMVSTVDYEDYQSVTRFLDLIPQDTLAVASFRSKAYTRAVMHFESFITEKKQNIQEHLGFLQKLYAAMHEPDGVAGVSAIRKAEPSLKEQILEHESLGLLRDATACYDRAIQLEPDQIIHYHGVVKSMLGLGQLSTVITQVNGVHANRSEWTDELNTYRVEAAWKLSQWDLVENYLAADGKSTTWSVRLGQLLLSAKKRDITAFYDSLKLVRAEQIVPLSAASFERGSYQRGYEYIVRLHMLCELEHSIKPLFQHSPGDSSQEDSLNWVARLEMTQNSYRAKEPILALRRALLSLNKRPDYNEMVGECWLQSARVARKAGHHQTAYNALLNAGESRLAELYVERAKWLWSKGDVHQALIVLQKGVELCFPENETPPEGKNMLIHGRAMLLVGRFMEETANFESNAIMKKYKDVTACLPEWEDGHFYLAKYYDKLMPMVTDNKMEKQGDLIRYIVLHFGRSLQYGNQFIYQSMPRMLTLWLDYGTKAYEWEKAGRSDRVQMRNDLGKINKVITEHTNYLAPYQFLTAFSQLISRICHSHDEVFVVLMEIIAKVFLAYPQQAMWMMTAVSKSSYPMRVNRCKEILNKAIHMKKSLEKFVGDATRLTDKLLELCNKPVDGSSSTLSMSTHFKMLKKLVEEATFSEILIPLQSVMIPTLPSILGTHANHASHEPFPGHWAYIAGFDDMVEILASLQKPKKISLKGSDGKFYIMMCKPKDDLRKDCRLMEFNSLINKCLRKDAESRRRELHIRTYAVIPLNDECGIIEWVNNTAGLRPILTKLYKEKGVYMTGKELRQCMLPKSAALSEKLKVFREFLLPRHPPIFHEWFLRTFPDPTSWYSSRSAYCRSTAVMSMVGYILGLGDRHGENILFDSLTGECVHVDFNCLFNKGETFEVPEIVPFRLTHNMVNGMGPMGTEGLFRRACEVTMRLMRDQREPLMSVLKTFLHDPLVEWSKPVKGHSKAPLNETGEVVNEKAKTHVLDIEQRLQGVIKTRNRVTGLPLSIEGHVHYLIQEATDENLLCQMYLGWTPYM
human ATR kinase, sequence (Q8WXE1 whole entry partner): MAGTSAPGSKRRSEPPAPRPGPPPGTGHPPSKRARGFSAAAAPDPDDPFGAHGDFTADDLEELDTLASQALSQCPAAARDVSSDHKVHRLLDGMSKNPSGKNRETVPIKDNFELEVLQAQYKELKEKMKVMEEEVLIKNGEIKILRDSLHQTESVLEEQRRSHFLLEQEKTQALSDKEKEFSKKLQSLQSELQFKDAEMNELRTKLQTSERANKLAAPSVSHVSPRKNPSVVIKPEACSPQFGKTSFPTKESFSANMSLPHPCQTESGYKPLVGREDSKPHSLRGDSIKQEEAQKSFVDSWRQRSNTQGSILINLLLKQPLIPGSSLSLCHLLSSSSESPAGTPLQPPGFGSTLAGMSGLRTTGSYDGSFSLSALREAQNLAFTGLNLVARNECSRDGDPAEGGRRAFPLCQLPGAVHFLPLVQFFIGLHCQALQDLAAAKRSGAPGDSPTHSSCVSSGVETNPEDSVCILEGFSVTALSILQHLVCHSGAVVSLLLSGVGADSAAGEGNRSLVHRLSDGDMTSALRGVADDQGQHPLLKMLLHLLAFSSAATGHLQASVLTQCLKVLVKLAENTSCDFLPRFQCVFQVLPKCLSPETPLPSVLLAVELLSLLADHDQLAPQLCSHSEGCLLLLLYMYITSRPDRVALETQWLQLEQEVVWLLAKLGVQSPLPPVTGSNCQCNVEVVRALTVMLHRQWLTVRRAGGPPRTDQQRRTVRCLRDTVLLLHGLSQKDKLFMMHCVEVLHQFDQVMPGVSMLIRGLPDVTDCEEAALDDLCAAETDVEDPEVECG

| Compound | pIC50 |
| --- | --- |
| Cc1c(-c2cc(N3CCOC[C@H]3C)nc(-c3ccnc4[nH]ccc34)n2)cnn1C [WX26] | 6.91 |
| C[C@@H]1COCCN1c1cc(-c2ccnn2C)nc(-c2cc(F)cc3[nH]ccc23)n1 [WX19] | 7.09 |
| Cc1nnc(C)n1-c1cc(-c2cc(F)cc3[nH]ccc23)nc(N2CCOC[C@H]2C)c1 [WX54] | 7.57 |
| Cc1n[nH]c(C)c1-c1cc(-c2ccnc3[nH]ccc23)nc(N2CCOC[C@H]2C)c1 [WX32] | 7.46 |
| C[C@@H]1COCCN1c1cc(-c2ccnn2C)nc(-c2cccc3[nH]ccc23)n1 [WX02] | 7.14 |
| CCn1nccc1-c1cc(N2CCOC[C@H]2C)nc(-c2ccnc3[nH]ccc23)n1 [WX18] | 7.08 |
| Cc1nn(C)cc1-c1cc(N2CCOC[C@H]2C)nc(-c2ccnc3[nH]ccc23)n1 [WX25] | 7.04 |
| Cc1n[nH]c(C)c1-c1cc(N2CCOC[C@H]2C)nc(-c2ccnc3[nH]ccc23)n1 [WX23] | 6.94 |
| Cc1nnn(C)c1-c1cc(N2CCOC[C@H]2C)nc(-c2cccc3[nH]ccc23)n1 [WX35] | 7.72 |
| Cc1nnc(C)n1-c1cc(-c2cccc3[nH]ccc23)nc(N2CCOC[C@H]2C)c1 [WX57] | 7.55 |
| Cc1cc(-c2cc(N3CCOC[C@H]3C)nc(-c3cc(F)cc4[nH]ccc34)n2)n(C)n1 [WX20] | 7.16 |
| Cc1ncn(C)c1-c1cc(N2CCOC[C@H]2C)nc(-c2ccnc3[nH]ccc23)n1 [WX44] | 7.19 |
| CCn1nccc1-c1cc(-c2cccc3[nH]ccc23)nc(N2CCOC[C@H]2C)n1 [WX05] | 7.28 |
| C[C@@H]1COCCN1c1nc(-c2ccnc3[nH]ccc23)cc(-c2ccnn2C)n1 [WX06] | 6.61 |
| Cc1nnn(C2CC2)c1-c1cc(N2CCOC[C@H]2C)nc(-c2ccnc3[nH]ccc23)n1 [WX47] | 7.19 |
| Cc1cnn(C)c1-c1cc(-c2cc(F)cc3[nH]ccc23)nc(N2CCOC[C@H]2C)n1 [WX10] | 7.10 |
| Cc1cnn(C)c1-c1cc(-c2ccnc3[nH]ccc23)nc(N2CCOC[C@H]2C)n1 [WX07] | 7.12 |
| Cc1nnc(C)n1-c1cc(-c2cc(F)cc3[nH]ccc23)nc(N2CCOC[C@H]2C)n1 [WX56] | 7.34 |
| Cc1noc(C)c1-c1cc(-c2ccnc3[nH]ccc23)nc(N2CCOC[C@H]2C)c1 [WX30] | 7.46 |
| Cc1cnn(C)c1-c1cc(N2CCOC[C@H]2C)nc(-c2ccnc3[nH]ccc23)n1 [WX17] | 7.92 |
| Cc1noc(C)c1-c1cc(N2CCOC[C@H]2C)nc(-c2cc(CO)cc3[nH]ccc23)n1 [WX51] | 7.49 |
| Cc1nc(F)ccc1-c1cc(N2CCOC[C@H]2C)nc(-c2ccnc3[nH]ccc23)n1 [WX41] | 7.11 |
| Cc1cnn(C)c1-c1cc(N2CCOC[C@H]2C)nc(-c2cc(F)cc3[nH]ccc23)n1 [WX21] | 7.57 |
| C[C@@H]1COCCN1c1cc(-c2ccnn2C)cc(-c2ccnc3[nH]ccc23)n1 [WX33] | 6.70 |
| Cc1cnn(C)c1-c1cc(-c2ccnc3[nH]ccc23)nc(N2CCOC[C@H]2C)c1 [WX31] | 7.41 |
| Cc1nnn(C)c1-c1cc(N2CCOC[C@H]2C)nc(-c2ccnc3[nH]ccc23)n1 [WX34] | 7.16 |

| Compound | pIC50 |
| --- | --- |
| Cc1nnc(C)n1-c1cc(-c2ccnc3[nH]ccc23)nc(N2CCOC[C@H]2C)c1 [WX48] | 6.98 |
| COCc1cnn(C)c1-c1cc(N2CCOC[C@H]2C)nc(-c2ccnc3[nH]ccc23)n1 [WX43] | 7.19 |
| Cc1nnn(C)c1-c1cc(-c2cc(CO)cc3[nH]ccc23)nc(N2CCOC[C@H]2C)c1 [WX38] | 7.11 |
| C[C@@H]1COCCN1c1nc(-c2cccc3[nH]ccc23)cc(-c2ccnn2C)n1 [WX04] | 7.04 |
| Cc1cc(-c2cc(N3CCOC[C@H]3C)nc(-c3cccc4[nH]ccc34)n2)n(C)n1 [WX03] | 7.14 |
| CCn1nccc1-c1cc(N2CCOC[C@H]2C)nc(-c2cccc3[nH]ccc23)n1 [WX14] | 7.30 |
| CCn1nccc1-c1cc(N2CCOC[C@H]2C)nc(-c2cc(F)cc3[nH]ccc23)n1 [WX22] | 7.19 |
| C[C@@H]1COCCN1c1cc(-c2cnn(C)c2CO)nc(-c2ccnc3[nH]ccc23)n1 [WX29] | 7.02 |
| Cc1nnn(C)c1-c1cc(N2CCOC[C@H]2C)nc(-c2cc(CO)cc3[nH]ccc23)n1 [WX37] | 7.80 |
| CCn1nccc1-c1cc(-c2cc(F)cc3[nH]ccc23)nc(N2CCOC[C@H]2C)n1 [WX11] | 6.72 |
| C[C@@H]1COCCN1c1cc(-c2cn(C)nc2C(F)(F)F)nc(-c2ccnc3[nH]ccc23)n1 [WX27] | 6.91 |
| Cc1cnn(C)c1-c1cc(-c2cccc3[nH]ccc23)nc(N2CCOC[C@H]2C)n1 [WX12] | 7.39 |
| CCn1nccc1-c1cc(-c2ccnc3[nH]ccc23)nc(N2CCOC[C@H]2C)n1 [WX08] | 6.90 |
| Cc1nnc(C)n1-c1cc(-c2cccc3[nH]ccc23)nc(N2CCOC[C@H]2C)n1 [WX55] | 7.70 |
| Cc1cnn(C)c1-c1cc(N2CCOC[C@H]2C)nc(-c2cc(C(=O)O)cc3[nH]ccc23)n1 [WX53] | 7.08 |
| Cc1cnn(C)c1-c1cc(N2CCOC[C@H]2C)nc(-c2cccc3[nH]ccc23)n1 [WX13] | 7.62 |
| C[C@@H]1COCCN1c1cc(-c2cccc3[nH]ccc23)nc(-c2ccnn2C)c1 [WX01] | 6.92 |
| Cc1nn(C)c(C)c1-c1cc(N2CCOC[C@H]2C)nc(-c2ccnc3[nH]ccc23)n1 [WX24] | 7.74 |
| Cc1noc(C)c1-c1cc(N2CCOC[C@H]2C)nc(-c2ccnc3[nH]ccc23)n1 [WX28] | 7.33 |
| Cc1cc(-c2nc(-c3c(C)nnn3C)cc(N3CCOC[C@H]3C)n2)c2cc[nH]c2c1 [WX52] | 7.70 |
| Cc1nnn(C2CC2)c1-c1cc(N2CCOC[C@H]2C)nc(-c2cc(CO)cc3[nH]ccc23)n1 [WX49] | 7.59 |
| Cc1cc(-c2cc(N3CCOC[C@H]3C)nc(-c3ccnc4[nH]ccc34)n2)n(C)n1 [WX16] | 7.01 |
| Cc1nnn(C)c1-c1cc(N2CCOC[C@H]2C)nc(-c2cc(F)cc3[nH]ccc23)n1 [WX36] | 7.85 |
| Cc1nnn(C)c1-c1cc(-c2ccnc3[nH]ccc23)nc(N2CCOC[C@H]2C)c1 [WX39] | 7.38 |
| COc1cc(C)c(-c2cc(N3CCOC[C@H]3C)nc(-c3ccnc4[nH]ccc34)n2)cn1 [WX40] | 7.82 |
| C[C@@H]1COCCN1c1nc(-c2cc(F)cc3[nH]ccc23)cc(-c2ccnn2C)n1 [WX09] | 6.43 |

tested on: not listed separately; assay: Pharmacokinetic properties in vivo in female Balb/c Nude mice; design: species or system mouse; details: mouse, plasma, 1 mg/kg IV
Protocol: Experimental method: The purpose of this study was to determine the pharmacokinetic parameters of the compounds and calculate the oral bioavailability in female Balb/c Nude mice.
The project involved 6 female Balb/c Nude mice. 3 mice were administered intravenously at a dose of 1 mg/kg, and plasma samples were collected at 0 h (before administration) and 0.0833, 0.25, 0.5, 1, 2, 4, 6, 8 and 24 h after administration, other 3 mice were given by oral gavage at a dose of 10 mg/kg or 25 mg/kg, and plasma samples were collected at 0 h (before dosing) and 0.5, 1, 2, 3, 4, 6, 8, 24 h after administration. Then LC/MS/MS analysis was performed for the collected samples and data was collected. The collected analysis data was calculated for relevant pharmacokinetic parameters with Phoenix WinNonlin 6.2.1 software.

| Compound | AUC(0-t) | clearance | half-life |
| --- | --- | --- | --- |
| Cc1nnn(C)c1-c1cc(N2CCOC[C@H]2C)nc(-c2ccnc3[nH]ccc23)n1 [WX34] | 0.787 µM·h | 53.9 mL/min/kg | 1.22 h |

same assay, conditions: mouse, plasma, 1 mg/kg IV, drug concentration at 0 min

| Compound | C0 |
| --- | --- |
| Cc1nnn(C)c1-c1cc(N2CCOC[C@H]2C)nc(-c2ccnc3[nH]ccc23)n1 [WX34] | 1260 nM |

same assay, conditions: mouse, plasma, 1 mg/kg IV, read-out: Vdss

| Compound | Vd |
| --- | --- |
| Cc1nnn(C)c1-c1cc(N2CCOC[C@H]2C)nc(-c2ccnc3[nH]ccc23)n1 [WX34] | 3.72 L/kg |

same assay, conditions: mouse, plasma, 10 mg/kg oral gavage

| Compound | AUC(0-t) | Cmax | half-life |
| --- | --- | --- | --- |
| Cc1nnn(C)c1-c1cc(N2CCOC[C@H]2C)nc(-c2ccnc3[nH]ccc23)n1 [WX34] | 5.68 µM·h | 2860 nM | 1.16 h |

same assay, conditions: oral bioavailability, 10 mg/kg oral vs 1 mg/kg IV

| Compound | F |
| --- | --- |
| Cc1nnn(C)c1-c1cc(N2CCOC[C@H]2C)nc(-c2ccnc3[nH]ccc23)n1 [WX34] | 71.7% |

tested on: tumor cell line LoVo; assay: In vitro cell viability test (CellTiter-Glo), LoVo cell proliferation inhibition; type: cell-based; details: Homo sapiens
Protocol: In this experiment, inhibitory effect of the compounds on cell proliferation was investigated by testing influence on cell viability in vitro in tumor cell line LoVo.
CellTiter-Glo Luminescence Cell Viability Test
The following protocols were performed according to instruction of PromegaCellTiter-Glo Luminescence cell viability test Kit (Promega-G7573). • (1) Thawing CellTiter-Glo buffer and allowing it to acclimate to room temperature. • (2) Allowing CellTiter-Glo substrate to acclimate to room temperature. • (3) Adding CellTiter-Glo buffer to a bottle of CellTiter-Glo substrate to dissolve the substrate to prepare CellTiter-Glo working solution. • (4) Vortexing slowly to full dissolution. • (5) Removing the cell culture plate and balancing it to room temperature for 30 min. • (6) Adding 50 μL (equivalent to half volume of cell culture medium in each well) of CellTiter-Glo working solution to each well, wrapping the cell plate with aluminum foil to protect from light. • (7) Shaking the culture plate on an orbital shaker for 2 min to induce cell lysis. • (8) Placing the culture plate at room temperature for 10 min to stabilize the luminescence signal. • (9) Detecting the luminescence signal on SpectraMax i3× of Molecular Devices plate reader. Data Analysis
The following formula was used to calculate the inhibition rate of the test compound (Inhibition rate, IR): IR(%)=(1−(RLU Compound−RLU Blank control)/(RLU Vehicle control−RLU Blank control))*100%.
The inhibition rates of different concentrations of compounds were calculated in Excel, and GraphPad Prism software was used to make the inhibition curve and calculate relevant parameters, including the minimum inhibition rate, the maximum inhibition rate and IC50.

| Compound | pIC50 |
| --- | --- |
| C[C@@H]1COCCN1c1cc(C2([S@](C)(=N)=O)CC2)nc(-c2ccnc3[nH]ccc23)n1 [AZD6738, reference compound] | 6.09 |
| Cc1nnn(C2CC2)c1-c1cc(N2CCOC[C@H]2C)nc(-c2ccnc3[nH]ccc23)n1 [WX47] | 6.12 |
